Data: ChEMBL document CHEMBL3808373 (Bioorg Med Chem Lett, 2016)
Each block holds one compound with its values, some of them ahead of it. Activity calls are given as the source filed them. No cut-off for these calls is given here.

How the values were obtained:
[1] = Plasma protein binding in human; type: ADME, cell-free; conditions: read-out: PPB (converted)
[2] = Plasma protein binding in rabbit; type: ADME, cell-free, Oryctolagus cuniculus; conditions: read-out: PPB (converted)
Oryctolagus cuniculus = organism: Oryctolagus cuniculus; experiment: Inhibition of Nav1.5 in isolated rabbit heart assessed as inhibition of ATX2-induced prolongation of mean action potential duration at 10 to 100000 nM relative to control
[3] = Inhibition of Nav1.5 in isolated rabbit heart assessed as inhibition of ATX2-induced prolongation of mean action potential duration; conditions: Oryctolagus cuniculus
Heart = experiment: Protection against […]/clofilium-induced ventricular arrhythmias in isolated rabbit heart assessed as inhibition of torsade des pointes at 3 uM; type: functional, tissue-based; conditions: Oryctolagus cuniculus, Cardiac ventricle
[4] = Ratio of drug level in brain to plasma in rat; type: ADME, cell-free; conditions: read-out: BPR
[5] = Ratio of drug level in brain to plasma in dog; type: ADME, cell-free, Canis lupus familiaris; conditions: read-out: BPR
Rattus norvegicus = organism: Rattus norvegicus; experiment: Toxicity in rat assessed as liver lesions after 7 days; type: organism-based; conditions: in vivo, 168 h
[6] = target: T1, Sodium channel protein type 5 subunit alpha (Homo sapiens, UniProt Q14524); experiment: (§1) Inhibition of 0.1 Hz stimulated human Nav1.5alpha expressed in HEK293 cells assessed as inhibition of late sodium current at 1 uM with 3 compound additions for 7 to 8 mins at holding potential -120 mV in presence of late sodium current activator tefluthrin/ATX2 measured immediately after third compound addition by PatchXpress method relative to control; type: cell-based
[7] = target: T1, Sodium channel protein type 5 subunit alpha; experiment: as §1, with “current” for “current at 1 uM”, “method” for “method relative to control”; type: cell-based
[8] = target: T2, Nav1.5 (peak sodium current, use-dependent block) (Homo sapiens, UniProt Q14524); experiment: (§2) Inhibition of 3 Hz stimulated human Nav1.5alpha expressed in HEK293 cells assessed as use dependent block of peak sodium current at 10 uM with 3 compound additions at 60 sec intervals at holding potential -100 mV incubated for 320 sec after third compound addition followed by second period of 3 Hz stimulation by PatchXpress method relative to control; type: cell-based; conditions: HEK293 cells expressing human Nav1.5alpha
[9] = target: T3, Sodium channel protein type 1 subunit alpha (Homo sapiens, UniProt P35498); experiment: Inhibition of 10 Hz stimulated Nav1.1 (unknown origin) assessed as inhibition of peak sodium current at 10 uM by automated patch clamp method relative to control
[10] = Half life in human microsomes; type: ADME, Microsome
[11] = Half life in rat microsomes; type: ADME, Microsome
[12] = Half life in dog microsomes; type: ADME, Canis lupus familiaris, Microsome
[13] = target: T1, Sodium channel protein type 5 subunit alpha; experiment: Inhibition of Nav1.5 (unknown origin) assessed as inhibition of late sodium current by manual patch clamp method
[14] = target: T1, Sodium channel protein type 5 subunit alpha; experiment: Inhibition of 1 Hz stimulated Nav1.5 (unknown origin) assessed as inhibition of peak sodium current by manual patch clamp method
[15] = target: T1, Sodium channel protein type 5 subunit alpha; experiment: Inhibition of 3 Hz stimulated Nav1.5 (unknown origin) assessed as inhibition of peak sodium current by manual patch clamp method
[16] = target: T3, Sodium channel protein type 1 subunit alpha; experiment: Inhibition of 1 Hz stimulated Nav1.1 (unknown origin) by manual patch clamp method
[17] = target: T3, Sodium channel protein type 1 subunit alpha; experiment: Inhibition of 10 Hz stimulated Nav1.1 (unknown origin) by manual patch clamp method
[18] = target: Voltage-gated inwardly rectifying potassium channel KCNH2 (Homo sapiens, UniProt Q12809); experiment: Inhibition of human ERG
[19] = target: T4, Sodium channel protein type 2 subunit alpha (Homo sapiens, UniProt Q99250); experiment: Inhibition of 1 Hz stimulated Nav1.2 (unknown origin) by manual patch clamp method
[20] = target: T4, Sodium channel protein type 2 subunit alpha; experiment: Inhibition of 10 Hz stimulated Nav1.2 (unknown origin) by manual patch clamp method
[21] = Clearance in rat microsomes; type: ADME, Microsome
[22] = Clearance in dog microsomes; type: ADME, Canis lupus familiaris, Microsome
[23] = Clearance in cynomolgus monkey microsomes; type: ADME, Macaca fascicularis, Microsome
[24] = Clearance in human microsomes; type: ADME, Microsome
[25] = Clearance in rat; type: ADME, organism-based; conditions: in vivo
[26] = Clearance in dog; type: ADME, organism-based, Canis lupus familiaris; conditions: in vivo
[27] = Clearance in cynomolgus monkey; type: ADME, organism-based, Macaca fascicularis; conditions: in vivo
[28] = Terminal half life in rat; type: ADME, organism-based; conditions: in vivo, read-out: beta t1/2 (converted)
[29] = Clearance in rabbit; type: ADME, organism-based, Oryctolagus cuniculus; conditions: in vivo
[30] = Terminal half life in dog; type: ADME, organism-based, Canis lupus familiaris; conditions: in vivo, read-out: beta t1/2 (converted)
[31] = Terminal half life in monkey; type: ADME, organism-based, Macaca mulatta; conditions: rhesus monkey, in vivo; read-out: beta t1/2 (converted)
[32] = Terminal half life in rabbit; type: ADME, organism-based, Oryctolagus cuniculus; conditions: in vivo, read-out: beta t1/2 (converted)
[33] = Volume of distribution in rat; type: ADME, organism-based; conditions: in vivo
[34] = Volume of distribution in dog; type: ADME, organism-based, Canis lupus familiaris; conditions: in vivo
[35] = Volume of distribution in cynomolgus monkey; type: ADME, organism-based, Macaca fascicularis; conditions: in vivo
[36] = Volume of distribution in rabbit; type: ADME, organism-based, Oryctolagus cuniculus; conditions: in vivo
[37] = Oral bioavailability in rat; type: ADME, organism-based; conditions: in vivo
[38] = Oral bioavailability in dog; type: ADME, organism-based, Canis lupus familiaris; conditions: in vivo
[39] = Plasma protein binding in rat; type: ADME, cell-free; conditions: read-out: PPB (converted)
[40] = Plasma protein binding in dog; type: ADME, cell-free, Canis lupus familiaris; conditions: read-out: PPB (converted)
[41] = target: T1, Sodium channel protein type 5 subunit alpha; conditions: HEK293, human, read-out: INH
Description: Inhibition of 0.1 Hz stimulated human Nav1.5alpha expressed in HEK293 cells assessed as inhibition of late sodium current at 10 uM with 3 compound additions for 7 to 8 mins at holding potential -120 mV in presence of late sodium current activator tefluthrin/ATX2 measured immediately after third compound addition by PatchXpress method relative to control

[42] = target: T2, Nav1.5 (peak sodium current, use-dependent block); experiment: as §2, with “at 1” for “at 10”; type: cell-based; conditions: HEK293 cells expressing human Nav1.5alpha
[43] = Lipophilicity, log D of compound; type: physicochemical; conditions: octanol/water
[44] = target: T1, Sodium channel protein type 5 subunit alpha; experiment: as §1, with “300 nM” for “1 uM”; type: cell-based

T2 sequence (Q14524 whole entry): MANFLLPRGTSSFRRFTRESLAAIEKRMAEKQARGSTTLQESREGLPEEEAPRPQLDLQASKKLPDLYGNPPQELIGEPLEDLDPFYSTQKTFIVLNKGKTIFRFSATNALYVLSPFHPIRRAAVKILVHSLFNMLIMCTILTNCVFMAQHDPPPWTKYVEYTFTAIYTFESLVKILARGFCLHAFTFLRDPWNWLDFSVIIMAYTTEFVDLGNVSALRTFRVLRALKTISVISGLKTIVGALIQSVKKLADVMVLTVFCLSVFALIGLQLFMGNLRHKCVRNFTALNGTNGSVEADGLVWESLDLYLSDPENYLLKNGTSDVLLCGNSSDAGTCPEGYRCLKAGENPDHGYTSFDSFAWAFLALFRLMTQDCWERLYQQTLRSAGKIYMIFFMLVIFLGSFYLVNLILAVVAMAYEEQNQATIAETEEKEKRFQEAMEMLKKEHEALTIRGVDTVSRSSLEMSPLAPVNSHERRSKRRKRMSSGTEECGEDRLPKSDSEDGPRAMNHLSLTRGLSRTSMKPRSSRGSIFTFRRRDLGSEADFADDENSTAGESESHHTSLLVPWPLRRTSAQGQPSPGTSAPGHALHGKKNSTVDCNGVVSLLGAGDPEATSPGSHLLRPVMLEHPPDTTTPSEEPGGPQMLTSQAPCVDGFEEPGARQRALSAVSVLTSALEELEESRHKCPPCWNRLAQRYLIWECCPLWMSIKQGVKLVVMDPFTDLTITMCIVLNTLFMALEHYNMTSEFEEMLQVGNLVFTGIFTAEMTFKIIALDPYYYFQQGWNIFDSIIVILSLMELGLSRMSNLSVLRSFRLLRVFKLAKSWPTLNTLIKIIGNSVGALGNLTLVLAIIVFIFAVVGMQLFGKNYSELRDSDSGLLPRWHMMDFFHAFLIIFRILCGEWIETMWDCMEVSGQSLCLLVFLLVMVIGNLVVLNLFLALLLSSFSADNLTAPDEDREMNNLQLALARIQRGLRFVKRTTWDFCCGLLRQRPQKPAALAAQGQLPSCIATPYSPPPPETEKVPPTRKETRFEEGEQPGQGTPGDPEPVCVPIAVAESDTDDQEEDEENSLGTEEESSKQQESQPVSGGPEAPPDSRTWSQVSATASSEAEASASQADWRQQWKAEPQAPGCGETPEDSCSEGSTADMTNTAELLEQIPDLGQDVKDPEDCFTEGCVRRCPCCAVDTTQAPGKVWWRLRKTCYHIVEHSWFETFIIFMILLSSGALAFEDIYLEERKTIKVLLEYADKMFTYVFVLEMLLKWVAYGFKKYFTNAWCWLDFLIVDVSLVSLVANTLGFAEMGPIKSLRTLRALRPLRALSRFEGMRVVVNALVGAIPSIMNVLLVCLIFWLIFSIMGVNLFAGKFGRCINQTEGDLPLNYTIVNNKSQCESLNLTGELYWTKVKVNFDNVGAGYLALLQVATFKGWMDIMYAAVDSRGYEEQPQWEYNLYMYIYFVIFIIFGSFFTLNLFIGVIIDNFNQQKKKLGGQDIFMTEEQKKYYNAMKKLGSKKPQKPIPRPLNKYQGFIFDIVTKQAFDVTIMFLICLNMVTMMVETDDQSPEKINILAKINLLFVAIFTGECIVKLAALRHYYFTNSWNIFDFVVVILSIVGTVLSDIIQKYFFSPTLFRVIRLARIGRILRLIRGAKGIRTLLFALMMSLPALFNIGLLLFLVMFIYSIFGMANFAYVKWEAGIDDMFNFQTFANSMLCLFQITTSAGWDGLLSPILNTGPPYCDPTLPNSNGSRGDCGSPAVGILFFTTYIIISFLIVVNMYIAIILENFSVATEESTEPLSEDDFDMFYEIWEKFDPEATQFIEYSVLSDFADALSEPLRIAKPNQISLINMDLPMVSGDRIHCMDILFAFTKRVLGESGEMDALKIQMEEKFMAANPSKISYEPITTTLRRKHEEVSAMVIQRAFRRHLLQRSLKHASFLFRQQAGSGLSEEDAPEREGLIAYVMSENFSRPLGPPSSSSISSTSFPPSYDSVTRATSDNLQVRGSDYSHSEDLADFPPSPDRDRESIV
T1 sequence (Q14524 whole entry): as above

SMILES: O=c1[nH]nc2ccc(-c3ccc(Oc4ccc(F)cc4)cc3)cn12
IC50 [7]: 1900 µM | inhibition [9]: 40% | half-life [10]: 6.58 h | inhibition at 320 s, 1 µM [42]: 28% | half-life [11]: 0.717 h | half-life [12]: 4.55 h | inhibition at 10 µM [41]: ≥ 70%

SMILES: Cc1nc(Cn2nc3ccc(-c4ccc(Oc5ccc(F)cc5)cc4)cn3c2=O)no1
IC50 [7]: 541 µM | inhibition [9]: 65% | half-life [10]: 3.45 h | inhibition at 320 s, 1 µM [42]: 46% | half-life [11]: 2.42 h | half-life [12]: 2.78 h | inhibition at 10 µM [41]: ≥ 70%

SMILES: FC(F)(F)Oc1ccc(-c2ccc3nnc(C(F)(F)F)n3c2)cc1
Kp [4]: 5 | Kp [5]: 3 | IC50 [16]: > 10 µM | IC50 [17]: 0.4 µM | IC50 [18]: > 10 µM | IC50 [19]: 0.4 µM | IC50 [20]: 7.9 µM

SMILES: O=c1n(Cc2nc(-c3c(Cl)cccc3Cl)no2)nc2ccc(-c3ccc(OC(F)(F)F)cc3)cn12
IC50 [7]: 3.5 µM | inhibition at 10 µM [41]: ≥ 70%

SMILES: Cc1cc(Cn2nc3ccc(-c4ccc(OC(F)(F)F)cc4)cn3c2=O)on1
IC50 [7]: > 10 µM

SMILES: Cc1nc(Cn2nc3ccc(-c4ccc(Oc5ccc(Cl)cc5)cc4)cn3c2=O)no1
inhibition at 0.3 µM [44]: 60% | inhibition [9]: 79% | half-life [10]: 6.58 h | inhibition at 320 s, 1 µM [42]: 40% | half-life [11]: 6.5 h | half-life [12]: 5.9 h | inhibition at 10 µM [41]: ≥ 70%

More lines, main results first:

fraction unbound [1]: 0.05 | fraction unbound [2]: 0.043 | Kp [4]: > 20 | Kp [5]: > 20 | inhibition [9]: 8% | half-life [10]: 5.13 h | half-life [11]: 3.3 h | half-life [12]: 3.93 h | IC50 [16]: > 10 µM | IC50 [17]: 4.8 µM | IC50 [19]: 4.2 µM | IC50 [20]: 8.1 µM | CL [21]: 8.67 mL/min/kg | CL [22]: 4.33 mL/min/kg | CL [23]: 6.7 mL/min/kg | CL [24]: 3.5 mL/min/kg | clearance [25]: 12 mL/min/kg | clearance [26]: 7.98 mL/min/kg | clearance [27]: 7.97 mL/min/kg | half-life [28]: 2.1 h | clearance [29]: 7.03 mL/min/kg | half-life [30]: 17.3 h | half-life [31]: 4.78 h | half-life [32]: 4.81 h | Vd [33]: 1.95 L/kg | Vd [34]: 4.23 L/kg | Vd [35]: 2.29 L/kg | Vd [36]: 2.24 L/kg | bioavailability [37]: 44.3% | bioavailability [38]: 72.8% | fraction unbound [39]: 0.046 | fraction unbound [40]: 0.057
SMILES: Cc1noc(Cn2nc3ccc(-c4ccc(OC(F)(F)F)cc4)cn3c2=O)n1
inhibition (Oryctolagus cuniculus): 90% | IC50 [3]: 1.2 µM | inhibition (Heart): Active | Activity (Rattus norvegicus): Toxic | inhibition at 1 µM [6]: 31% | IC50 [7]: 1.9 µM | inhibition at 320 s, 10 µM [8]: 10% | IC50 [13]: 1.33 µM | IC50 [14]: > 10 µM | IC50 [15]: > 10 µM | IC50 [18]: > 10 µM | inhibition at 10 µM [41]: ≥ 70%

inhibition [9]: 44% | half-life [10]: 4.8 h | half-life [11]: 0.4 h | half-life [12]: 3.8 h
SMILES: Cc1cnc(Cn2nc3ccc(-c4ccc(OC(F)(F)F)cc4)cn3c2=O)o1
IC50 [7]: 2.5 µM | inhibition at 10 µM [41]: ≥ 70%

inhibition [9]: 28% | half-life [10]: 2.4 h | half-life [11]: 0.683 h | half-life [12]: 2.67 h
SMILES: Cc1coc(Cn2nc3ccc(-c4ccc(OC(F)(F)F)cc4)cn3c2=O)n1
IC50 [7]: 2.5 µM | inhibition at 10 µM [41]: ≥ 70%

inhibition [9]: 42% | half-life [10]: 0.75 h | half-life [11]: 0.567 h | half-life [12]: 1.57 h | logD [43]: 3.4
SMILES: Cc1noc(Cn2nc3ccc(-c4ccc(Oc5ccc(Cl)cc5)cc4)cn3c2=O)n1
IC50 [7]: 134 µM | inhibition at 320 s, 1 µM [42]: 47% | inhibition at 10 µM [41]: ≥ 70%
